Patent US9199965B2, “Benzoimidazole derivatives and pharmaceutical composition comprising the same” (Daewoong Co., Ltd., priority 2005, dated 2015)

How the values were obtained:
rat TRPV1 = target: T1, rat TRPV1 (Rattus norvegicus, UniProt O35433); assay: Assay for inhibitory activity against VR1 patch clamp activity (capsaicin current, inside-out patch); format: cell-based; settings: 1 μM compound with 10 μM capsaicin; rat TRPV1-transfected HEK293, inside-out patch; relative to capsaicin current before compound
T1 construct: expressed in transfected cells; host or cells: HEK293
T1 sequence (O35433 whole entry): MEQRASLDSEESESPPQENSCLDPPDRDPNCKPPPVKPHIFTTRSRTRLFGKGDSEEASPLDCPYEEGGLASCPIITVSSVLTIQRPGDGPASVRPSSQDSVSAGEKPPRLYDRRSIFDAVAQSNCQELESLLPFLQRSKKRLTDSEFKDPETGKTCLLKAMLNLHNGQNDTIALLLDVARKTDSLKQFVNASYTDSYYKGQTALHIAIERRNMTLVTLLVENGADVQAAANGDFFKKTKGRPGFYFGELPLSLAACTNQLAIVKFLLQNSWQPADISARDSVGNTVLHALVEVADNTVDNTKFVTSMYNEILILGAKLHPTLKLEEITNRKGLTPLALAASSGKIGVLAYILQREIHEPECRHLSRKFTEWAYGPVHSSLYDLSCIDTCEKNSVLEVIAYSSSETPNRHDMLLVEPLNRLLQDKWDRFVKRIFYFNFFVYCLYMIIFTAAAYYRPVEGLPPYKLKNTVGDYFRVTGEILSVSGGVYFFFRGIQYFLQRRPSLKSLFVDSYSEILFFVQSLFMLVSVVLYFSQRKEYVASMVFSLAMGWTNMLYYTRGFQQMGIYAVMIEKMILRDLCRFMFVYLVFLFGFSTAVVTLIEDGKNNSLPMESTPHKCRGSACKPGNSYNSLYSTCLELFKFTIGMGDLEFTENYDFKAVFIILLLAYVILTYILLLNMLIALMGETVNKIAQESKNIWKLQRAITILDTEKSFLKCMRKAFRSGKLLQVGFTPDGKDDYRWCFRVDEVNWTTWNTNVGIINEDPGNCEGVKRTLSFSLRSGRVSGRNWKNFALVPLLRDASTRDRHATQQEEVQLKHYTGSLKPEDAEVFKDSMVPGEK
Procedure: Each of the compounds synthesized in the examples were dissolved in dimethyl sulfoxide (DMSO) at a concentration of 10 mM. For use in the assay for inhibitory activity against patch clamp activity, the solutions were diluted to a concentration of 1 μM with the same physiological saline as in the pipette solution of Table 1, below.
2) Assay for Inhibitory Activity Against VR1 Patch Clamp Activity
In this experiment, changes in VR1 activity were recorded in current using an electrophysiological technique.
For use in this experiment, a rat TRPV1 cDNA was transfected into a subcultured HEK293 strain with the aid of lipofectamin.
The rat TRPV1 gene-transfected HEK293 cells were detached from the cell culture dishes with trypsin and distributed on a patch clamp recording chamber.
A cover glass slip on the bottom of the patch clamp recording chamber was treated for 15 min or longer with a […] poly-L-lysine solution so that the HEK cells would readily adhere thereto. Cellular membranes were ruptured at room temperature (˜25° C.) from randomly selected HEK cells to perform an inside-out patch clamp technique. 10 μM of capsaicin was fed into the chamber (cytoplasmic side) to activate a capsaicin current through the VR1. When the capsaicin current reached a stable stage, each compound was added along with 10 μM of capsaicin to record the inhibitory activity of the compounds with regard to the current. The inhibition was expressed as percentages.
Detected current was amplified using a Digidata 1200B A/D converter and an Axopatch 1D amplifier (Axon instruments Inc.), and the data were recorded and analyzed with the aid of a computer. The inhibitory activity of each compound was expressed as a percentage relative to the capsaicin current immediately before the administration of each compound.

human vanilloid-1 (hVR1) = target: T2, human vanilloid-1 (hVR1) (Homo sapiens, UniProt Q8NER1); assay: Calcium influx of vanilloid receptor in hVR1-HEK293 cells (capsaicin-induced, Fluo-3/AM); format: cell-based; settings: 1 μM capsaicin-induced intracellular calcium influx, read-out: Inhibitory Activity IC50
T2 construct: expressed in transfected cells; host or cells: HEK293 Tet-on (hVR1-HEK293), doxycycline-induced
T2 sequence (Q8NER1 whole entry): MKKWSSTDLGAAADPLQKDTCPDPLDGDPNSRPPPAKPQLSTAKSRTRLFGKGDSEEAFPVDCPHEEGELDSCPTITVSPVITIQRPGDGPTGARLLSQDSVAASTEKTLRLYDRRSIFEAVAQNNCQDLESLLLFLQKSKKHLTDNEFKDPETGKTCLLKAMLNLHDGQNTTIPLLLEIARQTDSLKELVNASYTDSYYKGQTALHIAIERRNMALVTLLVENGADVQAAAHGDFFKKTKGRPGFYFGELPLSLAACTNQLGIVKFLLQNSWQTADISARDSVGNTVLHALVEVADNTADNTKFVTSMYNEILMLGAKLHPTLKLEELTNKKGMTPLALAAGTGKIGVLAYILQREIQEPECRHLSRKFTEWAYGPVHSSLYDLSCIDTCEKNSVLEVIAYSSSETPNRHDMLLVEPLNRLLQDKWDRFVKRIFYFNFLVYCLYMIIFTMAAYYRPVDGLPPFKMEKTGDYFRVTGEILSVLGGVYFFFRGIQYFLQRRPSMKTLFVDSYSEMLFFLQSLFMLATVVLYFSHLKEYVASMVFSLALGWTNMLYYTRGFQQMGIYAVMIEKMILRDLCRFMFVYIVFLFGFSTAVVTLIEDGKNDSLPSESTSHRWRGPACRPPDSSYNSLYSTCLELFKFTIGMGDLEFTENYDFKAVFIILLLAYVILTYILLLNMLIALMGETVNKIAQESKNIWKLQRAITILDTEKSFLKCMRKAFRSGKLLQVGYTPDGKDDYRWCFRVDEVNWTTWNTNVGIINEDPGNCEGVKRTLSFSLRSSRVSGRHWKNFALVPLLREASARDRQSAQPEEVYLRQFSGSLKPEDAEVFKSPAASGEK
Outline: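 HEK293 Tet-on cells expressing human VR1 were induced with deoxycycline and loaded with Fluo-3/AM for 90 min at 37 °C. Cells were given test compound at several concentrations, then stimulated with 1 μM capsaicin. Inhibition of the calcium fluorescence signal was fitted with the Hill equation.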

[1] = tested on: ICR male mice (PBQ-induced writhing); assay: PBQ-induced writhing test for analgesic effect; format: in vivo; settings: Mus musculus, 1 h, 20 mg/kg oral, one hour before intraabdominal PBQ (0.02%), read-out: % Inhibition (decrease in number of writhes compared to control)
Procedure: A PBQ-induced writhing test was conducted in mice to assay for the analgesic effect of the novel compounds. Five-week-old ICR male mice were treated with PBQ (phenyl-p-quinone, 0.02%). A suspension of 20 mg of test material in 10 mL of physiological saline was used per kg of weight of mice. Test materials in combination with a carrier were orally administered one hour before the intraabdominal injection of PBQ in a dose of 10 mL per kg weight. From 5 min after the injection, individual mice in each test group were measured for numbers of writhes at regular intervals of 10 min. Analgesic effects of test compounds were expressed as percentages of the decrease in number of writhes compared to a control. [% Inhibition=(Control administered with carrier alone−Group administered with test material)/control administered with carrier alone×100]

inhibition at 1 µM (rat TRPV1) [%]	IC50 (human vanilloid-1 (hVR1)) [µM]	SMILES	inhibition in vivo at 20 mg/kg [1] [%]
89	0.038	FC(F)(F)c1cc(C(F)(F)F)c2nc(-c3ccc(-c4ncccc4Cl)cn3)[nH]c2c1 [Compound 139, 6′-(4,6-bistrifluoromethyl-1H-benzoimidazole-2-yl)-3-chloro-[2,3′]bipyridine]	26
69	0.014	FC(F)(F)c1ccc2nc(-c3ccc(-c4ncccc4C(F)(F)F)cn3)[nH]c2c1 [Compound 158, 3-trifluoromethyl-6′-(6-trifluoromethyl-1H-benzoimidazole-2-yl)-[2,3′]bipyridine]	53
99	0.014	FC(F)(F)c1cc(C(F)(F)F)c2nc(-c3ccc(-c4ncccc4C(F)(F)F)cn3)[nH]c2c1 [Compound 162, 6′-(4,6-bistrifluoromethyl-1H-benzoimidazole-2-yl)-3-trifluoromethyl-[2,3′]bipyridine]	28

The next lines start with the molecule.

SMILES	inhibition at 1 µM (rat TRPV1) [%]	IC50 (human vanilloid-1 (hVR1)) [µM]	inhibition in vivo at 20 mg/kg [1] [%]
FC(F)(F)c1cnc2nc(-c3ccc(-c4ncccc4Cl)c4ccccc34)[nH]c2c1 [Compound 107, 2-[4-(3-chloropyridin-2-yl)naphthalen-1-yl]-6-trifluoromethyl-1H-imidazo[4,5-b]pyridine]	97	0.017	46
FC(F)(F)c1cc(Cl)c2nc(-c3ccc(-c4ncccc4Cl)cn3)[nH]c2c1 [Compound 138, 3-chloro-6′-(4-chloro-6-trifluoromethyl-1H-benzoimidazole-2-yl)-[2,3′]bipyridine]	73	0.016	22
